Reference: the supplement of paper PMC10307832

Columns and labels:
Test in all cases: relative viability (nuclei count vs DMSO), 5 days (fraction); higher = more cells survive
Dovitinib + AZD7762 = compound: CN1CCN(c2ccc3nc(-c4c(N)c5c(F)cccc5[nH]c4=O)[nH]c3c2)CC1 [Dovitinib] + NC(=O)Nc1cc(-c2cccc(F)c2)sc1C(=O)N[C@H]1CCCNC1 [AZD7762] (partner 0.2 µM)
Outline: (§1)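 Dosing by pin tool came one day after lung cancer cell lines were seeded in 1536-well plates, using either one drug or a fixed anchor-drug dose plus five library-drug doses (not always all listed) in √10 steps. After 5 days, nuclei were counted on 4× images. Relative viability is treated-well nuclei count divided by vehicle-well nuclei count, and values are medians of duplicate plates.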

Dovitinib + Vorinostat = compound: CN1CCN(c2ccc3nc(-c4c(N)c5c(F)cccc5[nH]c4=O)[nH]c3c2)CC1 [Dovitinib] + O=C(CCCCCCC(=O)Nc1ccccc1)NO [Vorinostat] (partner 1 µM)
Outline: as §1

Dovitinib + Foretinib = compound: CN1CCN(c2ccc3nc(-c4c(N)c5c(F)cccc5[nH]c4=O)[nH]c3c2)CC1 [Dovitinib] + COc1cc2c(Oc3ccc(NC(=O)C4(C(=O)Nc5ccc(F)cc5)CC4)cc3F)ccnc2cc1OCCCN1CCOCC1 [Foretinib] (partner 0.25 µM)
Outline: as §1

Dovitinib + Pictilisib = compound: CN1CCN(c2ccc3nc(-c4c(N)c5c(F)cccc5[nH]c4=O)[nH]c3c2)CC1 [Dovitinib] + CS(=O)(=O)N1CCN(Cc2cc3nc(-c4cccc5[nH]ncc45)nc(N4CCOCC4)c3s2)CC1 [Pictilisib] (partner 1 µM)
Outline: as §1

Cell Line | relative viability (Dovitinib + AZD7762; first compound 0.02 µM) | relative viability (Dovitinib + AZD7762; first compound 0.06325 µM) | relative viability (Dovitinib + AZD7762; first compound 0.2 µM) | relative viability (Dovitinib + AZD7762; first compound 0.6325 µM) | relative viability (Dovitinib + AZD7762; first compound 2 µM) | relative viability (Dovitinib + Vorinostat; first compound 0.02 µM) | relative viability (Dovitinib + Vorinostat; first compound 0.06325 µM) | relative viability (Dovitinib + Vorinostat; first compound 0.2 µM) | relative viability (Dovitinib + Vorinostat; first compound 0.6325 µM) | relative viability (Dovitinib + Vorinostat; first compound 2 µM) | relative viability (Dovitinib + Foretinib; first compound 0.02 µM) | relative viability (Dovitinib + Foretinib; first compound 0.06325 µM) | relative viability (Dovitinib + Foretinib; first compound 0.2 µM) | relative viability (Dovitinib + Foretinib; first compound 0.6325 µM) | relative viability (Dovitinib + Foretinib; first compound 2 µM) | relative viability (Dovitinib + Pictilisib; first compound 0.02 µM) | relative viability (Dovitinib + Pictilisib; first compound 0.06325 µM) | relative viability (Dovitinib + Pictilisib; first compound 0.2 µM) | relative viability (Dovitinib + Pictilisib; first compound 0.6325 µM) | relative viability (Dovitinib + Pictilisib; first compound 2 µM)
NCI-H441 | 1.17 | 0.977 | 1.22 | 1.2 | 1.27 | 0.76 | 0.795 | 0.849 | 0.628 | 0.772 | 0.832 | 1.08 | 0.774 | 1.11 | 1.05 | 0.521 | 0.528 | 0.517 | 0.477 | 0.47
NCI-H1793 | 0.453 | 0.316 | 0.505 | 0.306 | 0.53 | 1.01 | 0.753 | 0.751 | 0.891 | 0.773 | 0.775 | 0.532 | 0.684 | 0.604 | 0.745 | 0.395 | 0.282 | 0.419 | 0.375 | 0.31
NCI-H23 | 0.287 | 0.233 | 0.23 | 0.275 | 0.377 | 0.551 | 0.699 | 0.616 | 0.735 | 0.643 | 0.899 | 0.913 | 1.09 | 0.962 | 0.983 | 0.44 | 0.444 | 0.451 | 0.493 | 0.433
HARA | 0.334 | 0.257 | 0.381 | 0.211 | 0.315 | 0.553 | 0.542 | 0.645 | 0.676 | 0.569 | 0.969 | 0.765 | 0.846 | 0.873 | 0.905 | 0.372 | 0.259 | 0.367 | 0.398 | 0.417
NCI-H1792 | 0.559 | 0.761 | 0.676 | 0.796 | 0.559 |  |  |  |  |  |  |  |  |  |  | 0.315 | 0.205 | 0.294 | 0.288 | 0.291
NCI-H1703 | 0.132 | 0.0996 | 0.125 | 0.114 | 0.146 |  |  |  |  |  | 0.326 | 0.332 | 0.445 | 0.355 | 0.328 | 0.215 | 0.24 | 0.294 | 0.232 | 0.208
NCI-H2342 | 0.561 | 0.583 | 0.488 | 0.8 | 0.473 | 0.738 | 0.71 | 0.781 | 0.717 | 0.735 | 1.14 | 1.02 | 1.09 | 1.17 | 1.01 |  |  |  |  | 
CAL-12T | 0.648 | 0.664 | 0.558 | 0.659 | 0.505 | 0.754 | 0.73 | 0.926 | 0.829 | 0.764 | 0.986 | 1.12 | 1.07 | 1.1 | 1.12 | 0.664 | 0.3 | 0.295 | 0.528 | 0.722
NCI-H727 | 0.639 | 0.536 | 0.597 | 0.637 | 0.555 | 1.19 | 1.12 | 1.25 | 1.39 | 1.25 | 0.815 | 0.689 | 0.747 | 0.799 | 0.706 | 0.456 | 0.379 | 0.423 | 0.427 | 0.395
NCI-H2085 | 1.07 | 1.13 | 1.04 | 0.998 | 1.04 | 0.808 | 0.821 | 0.819 | 0.765 | 0.801 | 1.01 | 1.16 | 1.01 | 0.961 | 1.01 | 0.553 | 0.465 | 0.443 | 0.502 | 0.451
NCI-H1395 | 0.425 | 0.366 | 0.435 | 0.374 | 0.398 | 0.678 | 0.622 | 0.787 | 0.811 | 0.924 | 1.07 | 1.12 | 0.935 | 0.947 | 1.02 | 0.563 | 0.518 | 0.651 | 0.783 | 0.612
NCI-H1648 | 0.497 | 0.717 | 0.661 | 0.701 | 0.634 | 0.402 | 0.422 | 0.425 | 0.361 | 0.516 |  |  |  |  |  |  |  |  |  | 
NCI-H460 | 0.611 | 0.662 | 0.54 | 0.61 | 0.556 | 0.682 | 0.77 | 0.729 | 0.711 | 0.711 | 1 | 1.03 | 1.12 | 0.918 | 1.03 | 0.32 | 0.26 | 0.342 | 0.335 | 0.344
A549 |  |  |  |  |  |  |  |  |  |  | 0.943 | 0.919 | 0.954 | 0.985 | 0.975 | 0.412 | 0.474 | 0.541 | 0.488 | 0.463
IA-LM |  |  |  |  |  | 0.962 | 0.883 | 1.13 | 0.973 | 0.897 | 1.2 | 1.19 | 1.05 | 1.24 | 1.12 | 0.412 | 0.333 | 0.481 | 0.279 | 0.337
EKVX | 0.569 | 0.775 | 0.694 | 0.755 | 0.684 | 0.799 | 0.776 | 0.836 | 0.75 | 0.739 | 0.633 | 0.721 | 0.64 | 0.757 | 0.808 | 0.451 | 0.366 | 0.462 | 0.506 | 0.463
ChaGo-K-1 | 0.901 | 0.891 | 0.892 | 0.9 | 0.857 | 0.739 | 0.814 | 0.758 | 0.766 | 0.706 | 0.848 | 0.888 | 0.906 | 0.892 | 0.909 | 0.653 | 0.654 | 0.829 | 0.883 | 0.972
NCI-H1755 | 0.427 | 0.461 | 0.484 | 0.593 | 0.436 | 0.798 | 0.83 | 0.884 | 0.935 | 0.776 | 0.935 | 0.895 | 1.03 | 0.92 | 0.969 | 0.494 | 0.399 | 0.465 | 0.452 | 0.46
